Measurements as given in BindingDB's records for doi:10.1021/acs.jmedchem.0c01741 (Zhengzhou University, 2020).
pIC50: −log10 of the molar value.

Assay: Inhibition of ABCB1 (unknown origin) expressed in HEK293 cells assessed as increase in reversal of resistance to paclitaxel-induced cytotoxicity by measuring paclitaxel IC50 at 20 uM pre-incubated for 4 hrs followed by paclitaxel addition and measured after 72 hrs by MTT assay (Rvb = 91.40 +/- 23.32 nM)

Compound | pIC50
Cc1cc(Nc2ccc(F)cc2)n2nc(SCc3nc4ccccc4[nH]3)nc2n1 | 8.30

Assay: Inhibition of ABCB1 in multidrug-resistant human KB-C2 cells assessed as increase in reversal of resistance to paclitaxel-induced cytotoxicity by measuring paclitaxel IC50 at 10 uM pre-incubated for 4 hrs followed by paclitaxel addition and measured after 72 hrs by MTT assay (Rvb = 1886.37 +/- 243.05 nM)

Compound | pIC50
Cc1cc(Nc2ccc(F)cc2)n2nc(SCc3nc4ccccc4[nH]3)nc2n1 | 7.66

Assay: Inhibition of ABCB1 in multidrug-resistant human SW620/Ad300 cells assessed as increase in reversal of resistance to paclitaxel-induced cytotoxicity by measuring paclitaxel IC50 at 20 uM pre-incubated for 4 hrs followed by paclitaxel addition and measured after 72 hrs by MTT assay (Rvb = 4233.18 +/- 499.10 nM)

Compound | pIC50
Cc1cc(Nc2ccc(F)cc2)n2nc(SCc3nc4ccccc4[nH]3)nc2n1 | 7.66

Assay: Inhibition of ABCB1 (unknown origin) expressed in HEK293 cells assessed as increase in reversal of resistance to paclitaxel-induced cytotoxicity by measuring paclitaxel IC50 at 10 uM pre-incubated for 4 hrs followed by paclitaxel addition and measured after 72 hrs by MTT assay (Rvb = 91.40 +/- 23.32 nM)

Compound | pIC50
Cc1cc(Nc2ccc(F)cc2)n2nc(SCc3nc4ccccc4[nH]3)nc2n1 | 8.00

Assay: Inhibition of ABCB1 in multidrug-resistant human SW620/Ad300 cells assessed as increase in reversal of resistance to paclitaxel-induced cytotoxicity by measuring paclitaxel IC50 pre-incubated for 4 hrs followed by paclitaxel addition and measured after 72 hrs by MTT assay (Rvb = 4.23 +/- 0.6 uM)

Compound | pIC50
Cc1cc(Nc2ccc(F)cc2)n2nc(SCc3nc4ccccc4[nH]3)nc2n1 | 7.66
Cc1cc(Nc2ccc(C#N)cc2)n2nc(SCc3nc4ccccc4[nH]3)nc2n1 | 6.23
Cc1cc(Nc2ccc(C(=O)O)cc2)n2nc(SCc3nc4ccccc4[nH]3)nc2n1 | 5.39
COc1cc(Nc2cc(C)nc3nc(SCc4nc5ccccc5[nH]4)nn23)cc(OC)c1OC | 6.60
Cc1ccc(Nc2cc(C)nc3nc(SCc4nc5ccccc5[nH]4)nn23)cc1 | 6.30
Cc1cc(Nc2ccc(Br)cc2)n2nc(SCc3nc4ccccc4[nH]3)nc2n1 | 6.35
O=c1cc(-c2ccccc2)[nH]c2nc(SCc3nc4ccccc4[nH]3)nn12 | 6.18
Cc1cc(Nc2ccc(N3CCN(C)CC3)cc2)n2nc(SCc3nc4ccccc4[nH]3)nc2n1 | 5.80
Cc1cc(Nc2cc(C)[nH]n2)n2nc(SCc3nc4ccccc4[nH]3)nc2n1 | 5.80
Cc1cc(Nc2ccc3c(C)cc(=O)oc3c2)n2nc(SCc3nc4ccccc4[nH]3)nc2n1 | 5.94
C#Cc1cccc(Nc2cc(C)nc3nc(SCc4nc5ccccc5[nH]4)nn23)c1 | 5.84
Cc1cc(Nc2ccc(O)cc2)n2nc(SCc3nc4ccccc4[nH]3)nc2n1 | 5.62
COc1cccc(Nc2cc(C)nc3nc(SCc4nc5ccccc5[nH]4)nn23)c1 | 6.24
COc1ccc(Nc2cc(C)nc3nc(SCc4nc5ccccc5[nH]4)nn23)cc1 | 6.49
Cc1cc(Nc2ccc(Cl)cc2Cl)n2nc(SCc3nc4ccccc4[nH]3)nc2n1 | 6.15
CC(=O)c1ccc(Nc2cc(C)nc3nc(SCc4nc5ccccc5[nH]4)nn23)cc1 | 6.12
Cc1cc(Nc2ccc(OC(F)(F)F)cc2)n2nc(SCc3nc4ccccc4[nH]3)nc2n1 | 6.14
Cc1cc(Nc2ccc(C(F)(F)F)cc2)n2nc(SCc3nc4ccccc4[nH]3)nc2n1 | 6.07
Cc1ccc(Nc2cc(C)nc3nc(SCc4nc5ccccc5[nH]4)nn23)c(F)c1 | 6.20
Cc1cc(Nc2ccc(F)c(C)c2)n2nc(SCc3nc4ccccc4[nH]3)nc2n1 | 6.33
Cc1cc(Nc2ccc(F)c(Cl)c2)n2nc(SCc3nc4ccccc4[nH]3)nc2n1 | 6.11

Compound | pIC50
Cc1cc(Nc2cccc(F)c2)n2nc(SCc3nc4ccccc4[nH]3)nc2n1 | 6.28
Cc1cc(Nc2ccccc2F)n2nc(SCc3nc4ccccc4[nH]3)nc2n1 | 6.66
Cc1cc(Nc2ccc(F)cc2)n2nc(SCC(=O)c3ccccc3)nc2n1 | 5.90
Cc1cc(Nc2ccc(F)cc2)n2nc(SCc3csc4ccc(Cl)cc34)nc2n1 | 5.55
Cc1cc(Nc2ccc(F)cc2)n2nc(SCC3CC3)nc2n1 | 5.39
C#CCSc1nc2nc(C)cc(Nc3ccc(F)cc3)n2n1 | 5.47
C=CCSc1nc2nc(C)cc(Nc3ccc(F)cc3)n2n1 | 5.38
CCCSc1nc2nc(C)cc(Nc3ccc(F)cc3)n2n1 | 5.45
Cc1cc(Nc2ccc(F)cc2)n2nc(SCCCc3ccccc3)nc2n1 | 5.37
Cc1cc(Nc2ccc(F)cc2)n2nc(SCCc3ccccc3)nc2n1 | 5.81
Cc1cc(Nc2ccc(F)cc2)n2nc(SCc3cccc4ccccc34)nc2n1 | 5.76
Cc1cc(Nc2ccc(F)cc2)n2nc(SCc3c(Cl)cccc3Cl)nc2n1 | 5.71
Cc1cc(Nc2ccc(F)cc2)n2nc(SCc3cccc([N+](=O)[O-])c3)nc2n1 | 5.70
Cc1cc(Nc2ccc(F)cc2)n2nc(SCc3ccc([N+](=O)[O-])cc3)nc2n1 | 5.64
Cc1cc(Nc2ccc(F)cc2)n2nc(SCc3ccc(C(F)(F)F)cc3)nc2n1 | 5.59
Cc1cc(Nc2ccc(F)cc2)n2nc(SCc3cccc(Br)c3)nc2n1 | 5.69
Cc1cc(Nc2ccc(F)cc2)n2nc(SCc3ccccc3Br)nc2n1 | 5.79
Cc1cc(Nc2ccc(F)cc2)n2nc(SCc3ccc(Br)cc3)nc2n1 | 5.86
Cc1cc(Nc2ccc(F)cc2)n2nc(SCc3ccc(Cl)cc3)nc2n1 | 5.72
Cc1cc(Nc2ccc(F)cc2)n2nc(SCc3ccc(F)cc3)nc2n1 | 5.90
CC(C)c1cc(Nc2ccc(F)cc2)n2nc(SCc3ccccc3)nc2n1 | 5.84

Assay: Inhibition of ABCB1 in multidrug-resistant human KB-C2 cells assessed as increase in reversal of resistance to paclitaxel-induced cytotoxicity by measuring paclitaxel IC50 at 20 uM pre-incubated for 4 hrs followed by paclitaxel addition and measured after 72 hrs by MTT assay (Rvb = 1886.37 +/- 243.05 nM)

Compound | pIC50
Cc1cc(Nc2ccc(F)cc2)n2nc(SCc3nc4ccccc4[nH]3)nc2n1 | 8.32

Assay: Inhibition of ABCB1 in multidrug-resistant human SW620/Ad300 cells assessed as increase in reversal of resistance to paclitaxel-induced cytotoxicity by measuring paclitaxel IC50 at 10 uM pre-incubated for 4 hrs followed by paclitaxel addition and measured after 72 hrs by MTT assay (Rvb = 4233.18 +/- 499.10 nM)

Compound | pIC50
Cc1cc(Nc2ccc(F)cc2)n2nc(SCc3nc4ccccc4[nH]3)nc2n1 | 7.13
